Patent US20260226068A1, “IMIDAZOTRIAZINE IL-17A MODULATORS AND USES THEREOF” (DICE ALPHA, INC., priority 2023, published 2026)

Tests used:
[1] = target: T1, IL-17A/A (Homo sapiens, UniProt Q16552); assay: IL-17A/A HEK-Blue cell assay (SEAP reporter); assay type: cell-based; settings: HEK-Blue IL-17A reporter cells, IL17A/A 5 ng/mL, 20 hours, SEAP read at A630; read-out: HEK-Blue IL17AA (IC50 for IL-17A/A inhibition)
T1 construct: purchased Genscript Z03228
T1 sequence (Q16552 24-155): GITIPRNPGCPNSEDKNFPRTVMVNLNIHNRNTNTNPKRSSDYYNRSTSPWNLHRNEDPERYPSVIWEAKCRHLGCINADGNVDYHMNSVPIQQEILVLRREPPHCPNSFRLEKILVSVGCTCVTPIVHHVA

[2] = target: T2, IL-17A/F (Homo sapiens, UniProt Q16552+Q96PD4); assay: IL-17A/F HEK-Blue cell assay (SEAP reporter); assay type: cell-based; settings: HEK-Blue IL-17A reporter cells, IL17A/F 5 ng/mL, 20 hours, SEAP read at A630; read-out: HEK-Blue IL17AF (IC50 for IL-17A/F inhibition)
T2 construct: purchased R&D Systems
T2 sequence (Q16552 24-155): T1 sequence (Q16552 24-155)
T2 sequence (Q96PD4 31-163): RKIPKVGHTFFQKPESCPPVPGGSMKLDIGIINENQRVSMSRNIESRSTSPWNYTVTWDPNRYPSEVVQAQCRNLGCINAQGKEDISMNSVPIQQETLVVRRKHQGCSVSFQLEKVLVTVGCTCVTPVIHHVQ

IC50 [1] [nM] | IC50 [2] [nM] | Structure (SMILES)
< 100 | 100 to 1000 | O=C(N[C@H](c1cn2nc(C[C@H]3C[C@@H](C(F)(F)F)CNC3=O)c(C3CCOCC3)nc2n1)C1CCC(F)(F)CC1)c1ccnn1C1CC1 [Compound 419]
< 100 | 100 to 1000 | CCn1nccc1C(=O)N[C@H](c1cn2nc(C[C@H]3C[C@@H](C(F)(F)F)CNC3=O)c(N3CCN(C)[C@@H](C)C3)nc2n1)C1CCC(F)(F)CC1 [Compound 200]
100 to 1000 | > 1000 | CC(C)n1nccc1C(=O)N[C@H](c1cn2nc(CC3C[C@H](C(F)(F)F)CNC3=O)cnc2n1)C1CCC(F)(F)CC1 (stereo partly drawn) [Compound 15, N—((S)-(4,4-difluorocyclohexyl)(2-(((5S)-2-oxo-5-(trifluoromethyl)piperidin-3-yl)methyl)imidazo[1,2-b][1,2,4]triazin-6-yl)methyl)-1-isopropyl-1H-pyrazole-5-carboxamide]
100 to 1000 | > 1000 | C[C@H]1CC[C@H]([C@H](NC(=O)C2(F)CC2)c2cn3nc(CC4C[C@@H](C(F)(F)F)CNC4=O)c(N4CCOCC4)nc3n2)CC1 (single isomer, unassigned) [Compound 118]
< 100 | 100 to 1000 | CC(C)n1nccc1C(=O)N[C@H](c1cn2nc(CC3C[C@@H](C(F)(F)F)CNC3=O)c(N3CC4CC(C3)O4)nc2n1)[C@H]1CCCC(F)(F)C1 (single isomer, unassigned) [Compound 128]
< 100 | 100 to 1000 | CCn1nccc1C(=O)N[C@H](c1cn2nc(CC3C[C@@H](C(F)(F)F)CNC3=O)c(N(C)C)nc2n1)C1CCC(F)(F)CC1 (single isomer, unassigned) [Compound 48]
< 100 | > 1000 | CCn1nccc1C(=O)N[C@H](c1cn2nc(CC3C[C@@H](C(F)(F)F)CNC3=O)cnc2n1)C1CCC(F)(F)CC1 (single isomer, unassigned) [Compound 4]
< 100 | 100 to 1000 | CCc1nonc1C(=O)N[C@H](c1cn2nc(C[C@H]3C[C@@H](C(F)(F)F)CNC3=O)c(C3CCOCC3)nc2n1)C1CCCCC1 [Compound 221, N—((S)-cyclohexyl(2-(((3R,5R)-2-oxo-5-(trifluoromethyl)piperidin-3-yl)methyl)-3-(tetrahydro-2H-pyran-4-yl)imidazo[1,2-b][1,2,4]triazin-6-yl)methyl)-4-ethyl-1,2,5-oxadiazole-3-carboxamide]
< 100 | 100 to 1000 | CCn1nccc1C(=O)N[C@H](c1cn2nc(C[C@H]3C[C@@H](C(F)(F)F)CNC3=O)c(C3(C)CCCOC3)nc2n1)C1CCC(F)(F)CC1 (single isomer, unassigned) [Compound 177]
100 to 1000 | > 1000 | CCn1nccc1C(=O)N[C@H](c1cn2nc(C[C@H]3C[C@@H](C(F)(F)F)CNC3=O)c(C3CCCCN3CCOC)nc2n1)C1CCC(F)(F)CC1 (stereo partly drawn) [Compound 369, N-((1S)-(4,4-difluorocyclohexyl)(3-(1-(2-methoxyethyl)piperidin-2-yl)-2-(((3R,5R)-2-oxo-5-(trifluoromethyl)piperidin-3-yl)methyl)imidazo[1,2-b][1,2,4]triazin-6-yl)methyl)-1-ethyl-1H-pyrazole-5-carboxamide]
< 100 | 100 to 1000 | CCn1nccc1C(=O)N[C@H](c1cn2nc(C[C@H]3C[C@@H](C(F)(F)F)CNC3=O)c(C3(C)CCOC3)nc2n1)C1CCC(F)(F)CC1 (single isomer, unassigned) [Compound 166]
< 100 | 100 to 1000 | CCn1nccc1C(=O)N[C@H](c1cn2nc(C[C@H]3C[C@@H](C(F)(F)F)CNC3=O)c(N3C[C@@H](C)O[C@@H](C)C3)nc2n1)C1CCC(F)(F)CC1 [Compound 247, N—((S)-(4,4-difluorocyclohexyl)(3-((2R,6S)-2,6-dimethylmorpholino)-2-(((3R,5R)-2-oxo-5-(trifluoromethyl)piperidin-3-yl)methyl)imidazo[1,2-b][1,2,4]triazin-6-yl)methyl)-1-ethyl-1H-pyrazole-5-carboxamide]
100 to 1000 | > 1000 | O=C(N[C@H](c1cn2nc(CC3C[C@@H](C(F)(F)F)CNC3=O)cnc2n1)C1CCC(F)(F)CC1)c1conc1C(F)(F)F (stereo partly drawn) [Compound 10, N—((S)-(4,4-difluorocyclohexyl)(2-(((5R)-2-oxo-5-(trifluoromethyl)piperidin-3-yl)methyl)imidazo[1,2-b][1,2,4]triazin-6-yl)methyl)-3-(trifluoromethyl)isoxazole-4-carboxamide]
< 100 | > 1000 | CCn1nccc1C(=O)N[C@H](c1cn2nc(C[C@H]3C[C@@H](C(F)(F)F)CNC3=O)cnc2n1)C1CCC(F)(F)CC1 [Compound 27]
< 100 | 100 to 1000 | CCn1nccc1C(=O)N[C@H](c1cn2nc(C[C@H]3C[C@@H](C(F)(F)F)CNC3=O)c(C[C@H]3CCOC3)nc2n1)C1CCC(F)(F)CC1 (single isomer, unassigned) [Compound 225]
< 100 | 100 to 1000 | CCn1nccc1C(=O)N[C@H](c1cn2nc(C[C@H]3C[C@@H](C(F)(F)F)CNC3=O)c(N3CCCOCC3)nc2n1)C1CCC(F)(F)CC1 [Compound 245, N—((S)-(3-(1,4-oxazepan-4-yl)-2-(((3R,5R)-2-oxo-5-(trifluoromethyl)piperidin-3-yl)methyl)imidazo[1,2-b][1,2,4]triazin-6-yl)(4,4-difluorocyclohexyl)methyl)-1-ethyl-1H-pyrazole-5-carboxamide]
< 100 | > 1000 | Cc1nonc1C(=O)N[C@H](c1cn2nc(C[C@H]3C[C@@H](C(F)(F)F)CNC3=O)c(C3CCOCC3)nc2n1)[C@H]1C[C@H](C2CC2)C1 [Compound 318, N—((S)-((1r,3S)-3-cyclopropylcyclobutyl)(2-(((3R,5R)-2-oxo-5-(trifluoromethyl)piperidin-3-yl)methyl)-3-(tetrahydro-2H-pyran-4-yl)imidazo[1,2-b][1,2,4]triazin-6-yl)methyl)-4-methyl-1,2,5-oxadiazole-3-carboxamide]
100 to 1000 | > 1000 | CCn1nccc1C(=O)N[C@H](c1cn2nc(C[C@H]3C[C@@H](C(F)(F)F)CNC3=O)c(CN3CCN(CC(F)(F)F)C(=O)C3)nc2n1)C1CCC(F)(F)CC1 [Compound 352, N—((S)-(4,4-difluorocyclohexyl)(3-((3-oxo-4-(2,2,2-trifluoroethyl)piperazin-1-yl)methyl)-2-(((3R,5R)-2-oxo-5-(trifluoromethyl)piperidin-3-yl)methyl)imidazo[1,2-b][1,2,4]triazin-6-yl)methyl)-1-ethyl-1H-pyrazole-5-carboxamide]
< 100 | > 1000 | O=C(N[C@H](c1cn2nc(C[C@H]3C[C@@H](C(F)(F)F)CNC3=O)c(N3CCOCC3)nc2n1)C1CCC(F)(F)CC1)OCc1cc(C(F)(F)F)on1 [Compound 181, (5-(trifluoromethyl)isoxazol-3-yl)methyl ((S)-(4,4-difluorocyclohexyl)(3-morpholino-2-(((3R,5R)-2-oxo-5-(trifluoromethyl)piperidin-3-yl)methyl)imidazo[1,2-b][1,2,4]triazin-6-yl)methyl)carbamate]
< 100 | > 1000 | Cc1nonc1C(=O)N[C@H](c1cn2nc(C[C@H]3C[C@@H](C(F)(F)F)CNC3=O)c([C@@H]3CCCOC3)nc2n1)C1CCC(F)(F)CC1 (single isomer, unassigned) [Compound 266]
< 100 | 100 to 1000 | CCn1nccc1C(=O)N[C@H](c1cn2nc(C[C@H]3C[C@@H](C(F)(F)F)CNC3=O)c(CNCC(F)(F)F)nc2n1)C1CCC(F)(F)CC1 [Compound 331, N—((S)-(4,4-difluorocyclohexyl)(2-(((3R,5R)-2-oxo-5-(trifluoromethyl)piperidin-3-yl)methyl)-3-(((2,2,2-trifluoroethyl)amino)methyl)imidazo[1,2-b][1,2,4]triazin-6-yl)methyl)-1-ethyl-1H-pyrazole-5-carboxamide]
< 100 | 100 to 1000 | O=C(N[C@H](c1cn2nc(C[C@H]3C[C@@H](C(F)(F)F)CNC3=O)c(C3CCOCC3)nc2n1)C1CCC(F)(F)CC1)c1ccnn1CCN1CCCC1C(F)(F)F (stereo partly drawn) [Compound 430, N—((S)-(4,4-difluorocyclohexyl)(2-(((3R,5R)-2-oxo-5-(trifluoromethyl)piperidin-3-yl)methyl)-3-(tetrahydro-2H-pyran-4-yl)imidazo[1,2-b][1,2,4]triazin-6-yl)methyl)-1-(2-(2-(trifluoromethyl)pyrrolidin-1-yl)ethyl)-1H-pyrazole-5-carboxamide]
< 100 | 100 to 1000 | CCn1nccc1C(=O)N[C@H](c1cn2nc(C[C@H]3C[C@@H](C(F)(F)F)CC3=O)c(C3CCOCC3)nc2n1)C(C1CC1)C1CC1 [Compound 281]
100 to 1000 | > 1000 | O=C(N[C@H](c1cn2nc(C[C@H]3C[C@@H](C(F)(F)F)CNC3=O)cnc2n1)C1CCC(F)(F)CC1)c1conc1C(F)(F)F [Compound 42]
< 100 | 100 to 1000 | CCn1nccc1C(=O)N[C@H](c1cn2nc(C[C@H]3C[C@@H](C(F)(F)F)CNC3=O)c(N3CCO[C@@H](C)C3)nc2n1)[C@H]1CC[C@H](C)CC1 [Compound 158, 1-ethyl-N—((S)-((1r,4S)-4-methylcyclohexyl)(3-((S)-2-methylmorpholino)-2-(((3R,5R)-2-oxo-5-(trifluoromethyl)piperidin-3-yl)methyl)imidazo[1,2-b][1,2,4]triazin-6-yl)methyl)-1H-pyrazole-5-carboxamide]
